From US7345091B2, “Carotenoid ether analogs or derivatives for the inhibition and amelioration of disease” (Cardax Pharmaceuticals, Inc., priority 2002, dated 2008)
“Also recorded” adds a separate entry of the source. Structures can show the parent of a compound that is named as a salt. Where two headings read alike, the source gives them in different places.

Key:
superoxide anion = assay: Superoxide anion scavenging by EPR (DEPMPO spin trap) in phorbol ester-stimulated isolated neutrophils; format: cell-based, human; details: for potency relative to the SOD mimetic positive control: adjusted for percent inhibition and tested dose
Procedure: In an experiment, neutrophils were isolated on a Percoll gradient from whole blood from a human volunteer. The isolated neutrophils were then re-suspended in phosphate-buffered saline, and maximally stimulated with phorbol ester to induce the respiratory burst and production of superoxide anion. To the solution of activated human neutrophils, the disodium salt disuccinate astaxanthin derivative XVI was added at various concentrations, and the superoxide signal [as measured with electron paramagnetic resonance (EPR) spectroscopy] was subsequently measured. […] The disodium salt disuccinate astaxanthin derivative XVI tested at 100 μM scavenged 28% of the total signal. At 3 mM, almost no superoxide signal remained. […] In addition to reducing the superoxide anion signal important in ischemia-reperfusion injury, it is also likely that myocardial salvage can be achieved with the described carotenoid derivative, as superoxide anion plays a major role in tissue injury and death during prolonged myocardial ischemia. In a third experiment, neutrophils were again isolated on a Percoll gradient from whole blood from a second human volunteer. The isolated neutrophils were then re-suspended in phosphate-buffered saline, and maximally stimulated with phorbol ester to induce the respiratory burst and production of superoxide anion. […] Astaxanthin 2E was dissolved in HPLC grade dimethylsulfoxide (DMSO; Sigma-Aldrich, St. Louis, Mo.). The disodium disuccinate derivatives XVI of astaxanthin 2E were tested separately in […] formulations: statistical mixture of stereoisomers (as for astaxanthin, above, a 1:2:1 mixture of all-E; labeled as “mixture” in all tables and figures); 3S,3'S, and 3R,3'R (optical isomers or enantiomers); and meso (mixture of identical 3S,3'R and 3'S,3R; diastereomers of the enantiomeric pair). […] The disuccinate derivatives were first tested at the appropriate final concentrations in pure aqueous solution (deionized water) from stock solutions of 10 mM. Each of the four disuccinate derivatives were then tested from stock solutions prepared in a 1:2 mixture of ethanol (final concentration of EtOH in stock solution 331⁄3%; final concentration in isolated neutrophil assay 0.3%; HPLC grade ethanol, Sigma-Aldrich, St. Louis, Mo.) at 10 mM. […] Metaphore® Pharmaceuticals, Inc., St. Louis, Mo.) were also performed. Human polymorphonuclear leukocytes (PMNs) were isolated from freshly sampled venous blood of a single volunteer by Percoll density gradient centrifugation, which yielded PMNs with a purity of >95%. Each 10 mL of whole blood was mixed with 0.8 mL of 0.1 M EDTA and 25 mL of saline. The diluted blood was layered over 9 mL of Percoll at a specific density of 1.080 g/mL. After centrifugation at 400×g for 20 min at 20° C., the plasma, mononuclear cell, and Percoll layers were removed. Erythrocytes were lysed by addition of 18 mL of ice-cold water for 30 s, followed by 2 mL of 10× PIPES buffer (25 mM PIPES, 110 mM NaCl, and 5 mM KCl, titrated to pH 7.4 with NaOH). Cells were pelleted at 4° C., the supernatant was decanted, and the procedure was repeated. After the second hypotonic lysis, cells were washed twice with PAG buffer (PIPES buffer containing 0.003% human serum albumin and 0.1% glucose). Afterward, PMNs were counted by light microscopy on a hemocytometer. The final pellet was then suspended in PAG-CM buffer (PAG buffer with 1 mM CaCl2 and 1 mM MgCl2). All EPR measurements were performed using a Bruker ER 300 EPR spectrometer operating at X-band with a TM110 cavity. The microwave frequency was measured with a Model 575 microwave counter (EIP Microwave, Inc., San Jose, Calif.). To measure O^ -2 generation from phorbol-ester (PMA)-stimulated PMNs, EPR spin-trapping studies were performed using DEPMPO (Oxis, Portland, Oreg.) at 10 mM. 1×10^6 PMNs were stimulated with PMA (1 ng/mL) and loaded into capillary tubes for EPR measurements. […]

male Sprague-Dawley rats = assay: Infarct size reduction after coronary artery occlusion/reperfusion; format: in vivo, rat; details: for relationship of infarct size reduction / myocardial salvage to dose: 25, 50, 75 mg/kg I.V.
Procedure: FIG. 4, FIG. 25, and FIG. 26 depict graphical representations of the reduction of infarct size in male Sprague-Dawley rats. Male Sprague-Dawley rats were pre-treated with the disodium salt disuccinate astaxanthin derivative XVI (as the mixture of stereoisomers) in aqueous solution before performing an occlusion and inducing a myocardial infarction. Male Sprague-Dawley rats (175-200 grams) were anaesthetized with 100 mg/kg of Inactin, instrumented, and the heart exposed. […] The hearts were washed in buffer and incubated in triphenyltetrazolium chloride (TTC) staining solution kept at 37° C. in phosphate buffer at pH of 7.40. Infarct size (IS) was expressed as a % of the area at risk (IS/AAR, %). Systemic blood pressure, heart rate, blood gases and body temperature were monitored throughout the experiment, and temperature and blood gases were tightly controlled at normal physiological levels. 25, 50, or 75 mg/kg of the disodium salt disuccinate astaxanthin derivative XVI or sterile saline vehicle was administered I.V. by tail vein injection every day for 4 days prior to the infarct experiment on day 5 and subsequent infarct size determination.

male ICR mice = assay: LPS/galactosamine-induced liver injury (plasma ALT); format: in vivo, mouse; details: for LPS-induced ALT elevation: 500 mg/kg oral gavage in emulsion 2 hours before LPS/D-galactosamine IP, 5 hours
Procedure: Three-month old male ICR mice were treated with LPS and galactosamine in order to induce liver injury (Leist, 1995). Mice were first orally gavaged with either an olive oil/water/lecithin emulsion (10 mL/kg, or 0.3 mL for a 30 gram mouse), or the same emulsion containing the disodium disuccinate astaxanthin derivative XVI (50 mg/mL) for a final disodium disuccinate astaxanthin dose of 500 mg/kg. Two hours later mice were injected intraperitoneally (IP) with either saline (10 mL/kg) or a solution of E. coli LPS (3 mg/kg, Sigma catalog number L-3755) and D-galactosamine (700 mg/kg). Animals were sacrificed by carbon dioxide (CO2) asphyxiation 5 hours after the IP injection, and plasma was then collected for ALT determination.

Question: `CC1=C(/C=C/C(C)=C/C=C/C(C)=C/C=C/C=C(C)/C=C/C=C(C)/C=C/C2=C(C)C(=O)C(OC(=O)CCC(=O)O)CC2(C)C)C(C)(C)CC(OC(=O)CCC(=O)O)C1=O` (racemic) [XVI, Disodium Salt of the Disuccinic Acid Ester of Astaxanthin] was tested. Which “total superoxide signal scavenged” value (superoxide anion; 100 μM, first experiment (FIG. 2)) did it give?
Answer: 28%

Question: What about the “suppression of superoxide anion signal” value (superoxide anion; 3 mM, first experiment (FIG. 2)) of the same compound?
Answer: near complete suppression of the superoxide anion signal

Question: And the inhibition at 100 µM (superoxide anion; Homo sapiens, Neutrophil, Solvent EtOH (1:2 EtOH/water stock, 0.3% final), 0.1 mM, read-out: Mean (% inhibition) of superoxide anion signal)?
Answer: ~40%

Question: What about the inhibition at 500 µM (superoxide anion; Homo sapiens, Neutrophil, Solvent EtOH, 0.5 mM, read-out: Mean (% inhibition) of superoxide anion signal) of the same compound?
Answer: 60.1%

Question: And the inhibition at 1000 µM (superoxide anion; Homo sapiens, Neutrophil, Solvent EtOH, 1.0 mM, read-out: Mean (% inhibition) of superoxide anion signal)?
Answer: 78%

Question: What about the inhibition at 3000 µM (superoxide anion; Homo sapiens, Neutrophil, Solvent EtOH, 3.0 mM, read-out: Mean (% inhibition) of superoxide anion signal) of the same compound?
Answer: 95%

Question: What about the inhibition at 100 µM (superoxide anion; Homo sapiens, Neutrophil, Solvent Water, 0.1 mM, read-out: Mean (% inhibition) of superoxide anion signal) of the same compound?
Answer: 19.3%

Question: And the “Mean (% inhibition) of superoxide anion signal” value (superoxide anion; Solvent EtOH (1:2 EtOH/water stock, 0.3% final), 0.1 mM, listed as Mixture)?
Answer: 38.0%

Question: And the “potency relative to the SOD mimetic positive control” value (superoxide anion)?
Answer: one to two orders of magnitude less potent

Question: And the “potency relative to the SOD mimetic positive control” value (superoxide anion; listed as disodium disuccinate derivative)?
Answer: between one and two orders of magnitude less potent

Question: And the mean myocardial salvage (male Sprague-Dawley rats; 75 mg/kg I.V. daily for 4 days before 30 min occlusion / 2 hours reperfusion)?
Answer: 56%

Question: What about the “relationship of infarct size reduction / myocardial salvage to dose” value (male Sprague-Dawley rats) of the same compound?
Answer: increased linearly, and significantly, with dose

Question: And the “relationship of infarct size reduction / myocardial salvage to dose” value (male Sprague-Dawley rats; listed as Cardax™)?
Answer: linear relationship between dose and infarct size reduction

Question: What about the “LPS-induced ALT elevation” value (male ICR mice) of the same compound?
Answer: substantially reduced

Question: And the “LPS-induced ALT elevation” value (male ICR mice; listed as disodium disuccinate astaxanthin derivative)?
Answer: reduced induced levels of ALT

Question: And the “effect on plasma ALT in saline injected (sham-treated) animals” value (male ICR mice; 500 mg/kg oral gavage in emulsion, listed as disodium disuccinate astaxanthin derivative)?
Answer: no effect on plasma ALT; also recorded: no effect on background levels of ALT
